{"source": "patent US20110288136A1", "about": "“FLAVIVIRUS INHIBITION BY SULTAMS AND RELATED COMPOUNDS” (Oregon Health & Science University, priority 2006, published 2011)", "key": {"WNV [1]": {"test_system": "WNV", "experiment": "virus yield reduction assay, WNV", "type": "cell-based, West Nile virus", "settings": "for pEC50: West Nile virus, Vero, read-out: WNV EC50", "protocol": "(§1) This example describes an assay used to evaluate inhibitor antiviral activity. Inhibitor screening, virus yield reduction, and cytotoxicity assays all employed Vero cells and media containing 2% FCS. Compound libraries were assayed for WNV antiviral activity by screening for protection of infected Vero cells from WNV cytopathic effects (CPE). To do so, 10^4 Vero cells in 96 well plate wells were pretreated with a final concentration of 10 μg/mL drug in a total volume of 1 μL DMSO, infected with WNV at a multiplicity of infection (MOI) of 0.2, and screened for protection from CPE for 3-5 d post-infection (PI). Virus yield reduction assays were modified from previous protocols (Hirsch, A., Medigeshi, G., Meyers, H., DeFilippis, V., Fruh, K., Briese, T., Lipkin, W. I., and Nelson, J. (2005). The Src family kinase c-Yes is required for maturation of West Nile virus particles. J. Virol. 79, 11943-11951). Briefly, 10^4 Vero cells in 96 well plate wells were treated with compound dilutions in 1 μL DMSO, and infected with WNV at an MOI of 1-3. At 20-24 h PI, virus-containing media samples were titered by limiting dilution on fresh Vero cells. After 5 d, media were removed, and surviving cells were stained with 0.0375% crystal violet in ethanol. For cytotoxicity assays, 10^4 Vero cells per 96 well plate well were treated with compound dilutions, grown for 48 h, and subjected to colorimetric assays for dehydrogenase levels in metabolically active cells using MTS (3-[4,5-dimethylthiazol-2-yl)-5-[3-carboxymethyoxy phenyl]-2-[4-sulfophenyl]-2H-tetrazolium]; Promega) substrate. MTS cytotoxicity assay results were confirmed microscopically by scoring for Trypan Blue (0.2%) exclusion.\n(§2) Several antiviral sultams were evaluated in using these methods. The results, including CC50 and EC50 values for WNV and JEV, were determined by MTS cytotoxicity assays and virus yield reduction assays and are recorded in Table 2."}, "WNV [2]": {"test_system": "WNV", "experiment": "protection of infected Vero cells from WNV cytopathic effects", "type": "cell-based, West Nile virus", "settings": "WNV 0.2 MOI", "protocol": "as §1, with “For cytotoxicity assays, 10^4 Vero cells per 96 well plate well were treated with compound dilutions, grown for 48 h, and subjected to colorimetric assays for dehydrogenase levels in metabolically active cells using MTS (3-[4,5-dimethylthiazol-2-yl)-5-[3-carboxymethyoxy phenyl]-2-[4-sulfophenyl]-2H-tetrazolium]; Promega) substrate. MTS cytotoxicity assay results were confirmed microscopically by scoring for Trypan Blue (0.2%) exclusion.” left out"}, "JEV": {"test_system": "JEV", "experiment": "virus yield reduction assay, JEV", "type": "cell-based", "settings": "Japanese encephalitis virus, Vero, read-out: JEV EC50", "protocol": "as §1, §2"}, "[3]": {"experiment": "MTS cytotoxicity assay (48 h)", "type": "cell-based", "settings": "African green monkey; MTS, Vero cells, 48 h", "protocol": "as §1, §2"}, "Vero cells [4]": {"test_system": "Vero cells", "experiment": "MTS cytotoxicity assay (48 h)", "type": "cell-based", "settings": "highest drug concentrations employed", "protocol": "as §1, §2"}, "WNV E [5]": {"test_system": "WNV E", "experiment": "WNV E protein expression by immunofluorescence", "type": "cell-based, West Nile virus", "settings": "10 μg/mL, Vero cells, MOI 3, 24 h PI", "protocol": "E protein expression was assayed by immunofluorescence and immunoblotting. Immunofluorescent and immunoblot detection of WNV E employed a commercially available anti-E monoclonal antibody (Chemicon Mab 8150). For immunofluorescence, Vero cells in DMEM, plus penicillin, streptomycin, and 2% FCS were mock-treated with DMSO, or treated with 10 μg/mL of inhibitor compound in DMSO, and infected with WNV at an MOI of 3. At 24 h PI, cells were processed for immunofluorescent detection of WNV E using a standard protocol at room temperature (Arvidson, B., Seeds, J., Webb, M., Finlay, L., and Barklis, E. (2003). Analysis of the retrovirus capsid interdomain linker region. Virology 308, 166-177). Briefly, washed cells were fixed 20 min in 3.7% formaldehyde in phosphate-buffered saline (PBS; 9.5 mM sodium potassium phosphate [pH 7.4], 137 mM NaCl, 2.7 mM KCl), washed, permeabilized 10 min in 0.2% Triton X-100 in PBS, washed, incubated 1 h with primary antibody diluted in DMEM plus 10% heat inactivated FCS (DMEM+FCS), washed, incubated 1 h with 1:1000 diluted Alexafluor594-conjugated goat anti-mouse secondary antibody (Molecular Probes; Invitrogen) in DMEM+FCS, washed, and mounted with PBS in 50% glycerol. Images were collected electronically on a Zeiss fluorescence microscope.\nA handful of E protein-positive cells was observed over the faint background staining of the majority of cells."}, "WNV E [6]": {"test_system": "WNV E", "experiment": "WNV E protein expression by immunoblot", "type": "cell-based, West Nile virus", "settings": "5 μg/mL, Vero cells, MOI 5, 18 h PI", "protocol": "For immunoblot detection of WNV E Vero cells on […] in 1 mL media were mock-treated with 5 μL DMSO or treated with 5 μL 1 mg/mL inhibitor compound in DMSO (final concentration 5 μg/mL inhibitor compound), and infected with WNV at an MOI of 5. At 18 h PI, media were removed, cells were collected in IPB (10 mM Tris-hydrochloride [pH 7.5], 150 mM NaCl, 1 mM ethylenediaminetetraacetic acid (EDTA), 0.1% sodium dodecyl sulfate [SDS], 0.5% sodium deoxycholate, 1% Triton X-100, 0.02% sodium azide), mixed with 1 volume of 2 x sample buffer (12.5 mM Tris-hydrochloride [pH 6.8], 2% SDS, 20% glycerol, 0.25% bromphenol blue) plus 0.1 volume of β-mercaptoethanol (β-Me). Samples were frozen at −20° C., heated 5 min to 90° C. and subjected to SDS-polyacrylamide gel electrophoresis (SDS-PAGE). After electrophoresis and electroblotting onto nitrocellulose filters, WNV E proteins were detected using a dilution of Mab 8150 as the primary antibody, an alkaline phosphatase-conjugated goat anti-mouse IgG secondary antibody (Promega), and a BCIP (5-bromo-4-chloro-3-indolyl phosphate) plus NBT (nitroblue tetrazolium)-mediated color reaction for visualization.\nImmunoblotting was performed using a similar infection regime as in the immunofluorescence protocol. […] The WNV envelope protein was detected as a band at approximately 55 kDa in cells treated with DMSO, or with ineffective candidate inhibitors."}, "WNV NY99": {"test_system": "WNV NY99", "experiment": "RT real-time PCR quantitation of WNV RNA", "type": "cell-based, West Nile virus", "settings": "5 μg/ml, MOI 5, 18 h PI", "protocol": "Cells were DMSO mock-treated or treated with 5 μg/ml TYT-1, and then mock-infected or infected with WNV NY99 at an MOI of 5. At 18 h PI, RNAs were isolated from cells and subjected to reverse transcription (RT) real-time PCR quantitation of WNV RNA following the protocol of Briese et al. (Briese, T., Glass, W., and Lipkin, W. I. (2000). Detection of West Nile virus sequences in cerebrospinal fluid. Lancet 355, 1614-1615). […] Thus, inhibition of WNV NY99 replication by TYT-1 is accompanied by a reduction in viral protein and viral RNA expression levels."}, "Vero cells [7]": {"test_system": "Vero cells", "experiment": "MTS toxicity screening assay (3 d)", "type": "cell-based", "settings": "10 μg/ml, subconfluent Vero cells", "from_the_text": "TYT-1 was screened for toxicities using a colorimetric cell proliferation assay which employs MTS substrate to measure dehydrogenase activity in metabolically active cells (Barltrop, J. et al. (1991) 5-(3-carboxymethoxyphenyl)-2-(4,5-dimethylthiazoly)-3-(4-sulfophenyl)tetrazolium, inner salt (MTS) and related analogs of 3-(4,5-dimethyl thiazolyl)-2,5-diphenyltetrazolium bromide (mTT) reducing to purple water-soluble formazans as cell-viability indicators. Bioorg. & Med. Chem. Lett. 1, 611).\nIn this assay, subconfluent Vero cells were untreated, or treated 3 d with 10 μg/ml compound, and then subjected to MTS dehydrogenase assays, in which 490 nm absorbance values are proportional to cell viability signals. Results were plotted as the percentage of all treated compounds versus the percentage of the assay signal for untreated samples. Thus, nontoxic compounds give a signal approximately 100% that of the untreated signal."}, "[8]": {"test_system": "West Nile virus (WNV; strain NY99)", "experiment": "protection of mice from WNV lethality", "type": "in vivo, C57BL/6N mice", "settings": "400 pfu WNV s.c.", "protocol": "This example describes the protective effect exerted by examples of the disclosed compounds against challenge with flaviviruses. […] With reference to FIG. 2A, on day 0, two groups of five C57BL/6N mice each were injected subcutaneously with 400 plaque forming units (pfu) of West Nile virus (WNV; strain NY99). Four hours prior to virus infection, and at two and four days post-infection (PI), one set of mice was injected i.p. with 0.02 ml DMSO per mouse (mock), while the other set was injected with 10 mg/kg TYT-1 in 0.02 ml DMSO. Survival was tracked for 21 days PI, and results are plotted as overall percentage survival for each group, versus the number of days PI. […] With reference to FIG. 2B, two groups of C57BL/6N mice were infected on day 0 with WNV as described above. Prior to infection, the 15 mice in the mock group were injected subcutaneously with 0.025 ml of DMSO, while the 10 mice in the experimental group were injected with 10 mg/kg TYT-1 in DMSO. Mice subsequently were injected i.p. with DMSO or TYT-1 at days 2, 4, 6, 8; and survival was tracked as above. […] The combined results of these two trial yielded a survival rate of 6/20 for mock treated mice and 11/15 for TYT-1 treated mice."}}, "note": "pEC50: −log10 of the molar value. “And” between values parts separate entries of the source, which are not always exact repeats. Equal entries are not always repeated."}
{"molecule": "NC(=O)c1ncn([C@@H]2O[C@H](CO)[C@@H](O)[C@H]2O)n1", "note": "[ribavirin, reference compound]", "values": [{"measurement": "reduction of WNV titers", "setting": "WNV [1]; 100 μM", "value": 10, "unit": "fold"}, {"measurement": "protection of cells from WNV challenge", "setting": "WNV [2]; <100 μM", "value": "failed to protect cells"}]}
{"molecule": "O=S1(=O)CS/C(=N\\C(=S)N(c2ccccc2)c2ccccc2)N1c1ccccc1", "note": "[TYT-1, N′-(1,1-dioxido-2-phenyl-1,4,2-dithiazolidin-3-ylidene)-N,N-diphenylthiourea]", "values": [{"measurement": "reduction of viral titers", "setting": "WNV [1]; 1 μg/ml", "value": "at least 100 fold"}, {"measurement": "pEC50", "setting": "WNV [1]", "value": 6.15}, {"measurement": "reduction of WNV titers", "setting": "WNV [1]; repeated tests", "value": "100- to 10,000 fold and 100-10,000 fold"}, {"measurement": "pEC50", "setting": "JEV", "value": 5.15}, {"measurement": "CC50 at 48 h", "setting": "[3]", "value": "> 70", "unit": "µM"}, {"measurement": "50% cytotoxicity", "setting": "Vero cells [4]", "value": "not obtained"}, {"measurement": "cells expressing high levels of WNV E (immunofluorescence)", "setting": "WNV E [5]", "value": "very few cells"}, {"measurement": "E protein signal (immunoblot)", "setting": "WNV E [6]", "value": "essentially no E protein signal"}, {"measurement": "WNV RNAs per cell", "setting": "WNV NY99", "value": 27, "unit": "copies per cell"}, {"measurement": "MTS signal", "setting": "Vero cells [7]", "value": "136 % of untreated levels"}, {"measurement": "animals succumbed at 21 days", "setting": "[8]; 10 mg/kg i.p. 4 h before infection and days 2, 4 PI, FIG. 2A", "value": "two out of five"}, {"measurement": "survival rate, combined results of two trials", "setting": "[8]; 10 mg/kg, 21 days PI", "value": "11/15"}]}
{"molecule": "interferon alpha", "values": [{"measurement": "protection of cells from WNV challenge", "setting": "WNV [2]; 1000 IU/ml", "value": "failed to protect cells"}]}
{"molecule": "CC(C)N(C(=S)/N=C1\\SCS(=O)(=O)N1Cc1ccccc1)C(C)C", "note": "[TYT-3, [1,1-dioxido-2-(phenylmethyl)-1,4,2-dithiazolidin-3-ylidene]bis(1-methylethyl)-thiourea]", "values": [{"measurement": "pEC50", "setting": "WNV [1]", "value": 4.10}, {"measurement": "pEC50", "setting": "JEV", "value": 5.10}, {"measurement": "CC50 at 48 h", "setting": "[3]", "value": "> 80", "unit": "µM"}, {"measurement": "50% cytotoxicity", "setting": "Vero cells [4]", "value": "not obtained"}]}
{"molecule": "CC(C)N(C(=S)/N=C1\\SC(C)S(=O)(=O)N1C)C(C)C", "note": "(stereo not shown) [TYT-2, (2,5-dimethyl-1,1-dioxido-1,4,2-dithiazolidin-3-ylidene)bis(1-methylethyl)thiourea]", "values": [{"measurement": "pEC50", "setting": "WNV [1]", "value": 4.52}, {"measurement": "pEC50", "setting": "JEV", "value": 4.52}, {"measurement": "CC50 at 48 h", "setting": "[3]", "value": 90, "unit": "µM"}]}
{"molecule": "O=S1(=O)CS/C(=N\\C(=S)N(Cc2ccccc2)Cc2ccccc2)N1c1ccccc1", "note": "[TYT-4, (1,1-dioxido-2-phenyl-1,4,2-dithiazolidin-3-ylidene)-bis(phenylmethyl)-thiourea]", "values": [{"measurement": "pEC50", "setting": "WNV [1]", "value": 4.66}, {"measurement": "pEC50", "setting": "JEV", "value": 4.19}, {"measurement": "CC50 at 48 h", "setting": "[3]", "value": 65, "unit": "µM"}]}
